# In article PMC8326117 (International Journal of Biological Sciences, 2021):
# Entries after “also recorded” stand apart in the source; their conditions may differ. No end group written: not given here.
# What was measured:
# [1] = target: ACE2 (Homo sapiens, UniProt Q9BYF1); details: cited from earlier work
# [2] = tested on: SARS-CoV-2 S-protein; format: binding
# [3] = target: S-protein RBD (Severe acute respiratory syndrome coronavirus 2, UniProt P0DTC2); assay: LSPR assay, binding to S-protein RBD; set-up: species or system SARS-CoV-2; details: pH 7.4
# Protocol: LSPR analysis. Localized Surface Plasmon Resonance (LSPR) analysis was conducted with OpenSPRTM instrument (Nicoyalife, Canada). The COOH sensor chip was firstly installed on the OpenSPRTM instrument in accordance with the standard procedure. Run the buffer at the maximum flow rate (150 μL/min) and exhaust the bubble after reaching the signal baseline. Slow down the flow rate of buffer solution (PBS, pH 7.4) to 20 µL/min, then load 200 µL EDC/NHS (20 μL /min, 4min) solution to activate COOH sensor chips. […] The injection port was rinsed with buffer solution and emptied with air. Fill with 200 µL blocking solution (20 µL/min, 4 min), wash the sample ring with buffer solution and empty it with air. Observe baseline for 5 min to ensure stability. Next, the selected peptides were diluted into a series of solutions with different concentration, which were then injected into the chip with the concentration from low to high. The kinetic parameters of the binding reactions were calculated and analyzed by using TraceDrawer software (Ridgeview Instruments AB, Sweden).
# [4] = tested on: SARS-CoV-2 Spike-pseudovirus; details: in vivo
# [5] = mouse, in vivo
# [6] = tested on: SARS-CoV-2 Spike-pseudovirus; details: in vivo; remark: listed apart in the source
# [7] = tested on: HEK293T/hACE2 cells
# [8] = tested on: SARS-CoV-2 Spike-pseudovirus; details: in vivo; remark: listed apart in the source
# Chain of ACE2 (Q9BYF1 18-805): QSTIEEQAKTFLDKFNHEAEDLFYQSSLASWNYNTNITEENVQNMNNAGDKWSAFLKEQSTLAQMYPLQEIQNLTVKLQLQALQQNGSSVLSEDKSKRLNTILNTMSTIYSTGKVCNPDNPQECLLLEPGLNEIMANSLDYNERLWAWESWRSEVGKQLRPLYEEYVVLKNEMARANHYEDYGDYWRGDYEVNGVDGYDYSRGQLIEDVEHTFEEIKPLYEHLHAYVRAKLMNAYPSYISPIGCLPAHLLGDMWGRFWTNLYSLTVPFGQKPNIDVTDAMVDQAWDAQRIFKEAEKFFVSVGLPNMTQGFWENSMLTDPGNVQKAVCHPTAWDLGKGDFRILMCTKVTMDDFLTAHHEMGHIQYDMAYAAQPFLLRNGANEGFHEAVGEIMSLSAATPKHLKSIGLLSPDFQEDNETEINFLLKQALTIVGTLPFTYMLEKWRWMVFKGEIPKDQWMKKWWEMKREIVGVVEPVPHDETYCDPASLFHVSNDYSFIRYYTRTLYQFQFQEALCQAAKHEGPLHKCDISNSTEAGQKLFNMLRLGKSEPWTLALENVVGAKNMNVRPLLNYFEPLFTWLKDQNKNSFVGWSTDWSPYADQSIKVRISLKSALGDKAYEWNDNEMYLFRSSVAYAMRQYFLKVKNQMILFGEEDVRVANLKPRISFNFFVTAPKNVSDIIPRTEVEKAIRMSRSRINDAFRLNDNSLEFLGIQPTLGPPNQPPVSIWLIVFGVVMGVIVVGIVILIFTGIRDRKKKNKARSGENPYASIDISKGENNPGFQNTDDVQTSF
molecule,measurement,setting,value
Cc1cc(O)c2c(c1)C(=O)c1cc(O)cc(O)c1C2=O [emodin],ACE2 blocking,[1],identified to block ACE2
COc1ccc2[nH]cc(CCNC(C)=O)c2c1 [melatonin],ACE2 blocking,[1],identified to block ACE2
S=c1[nH]cnc2nc[nH]c12 [mercaptopurine],ACE2 blocking,[1],identified to block ACE2
CN(C)CCOc1ccc(/C(=C(/CCCl)c2ccccc2)c2ccccc2)cc1 [toremifene],ACE2 blocking,[1],identified to block ACE2
KKKKKKDKFNHEAEDLFY [AYn1],protein-peptide interaction in pull-down,[2],no protein signal was detected in negative and blank control lanes
same,koff,[3],0.001 s⁻¹
same,kon,[3],10500 M⁻¹ s⁻¹
same,pseudovirus infection / luciferin luminance,[4],relatively weaker impact on pseudovirus infection; also recorded: ameliorated; also recorded: failed to prevent pseudovirus infection in vivo
same,distribution in livers and kidneys,[5],not in the kidneys and livers
same,distribution in lungs and small intestine,[5],preferentially distributed in the lungs and intestine
same,luciferase IHC staining in lungs,[6],significantly ameliorated
same,cytotoxicity,[7],no significant cytotoxicity
same,cytotoxicity (general statement),[7],no cytotoxicity
same,pseudovirus content in lungs (119 bp S-protein band),[8],relative weak therapeutic effect
